In brackets after ≈: the same amount, converted by molar mass. Structures can show the parent of a compound that is named as a salt.
What was measured:
[1] = parameters: species or system Sprague-Dawley rats; conditions: male, Sprague-Dawley, rat, in vivo
Protocol: The lungs were removed and divided into left and right lung. Each half of the lung was weighed and placed in separate vials (for Pharmacokinetics analysis), snap frozen in liquid nitrogen and stored frozen at −60° C. or lower until shipped overnight on dry ice for further evaluation.
Each half of the lung was weighed and placed in separate vials (for Pharmacokinetics analysis), snap frozen in liquid nitrogen and stored frozen at −60° C. or lower until shipped overnight on dry ice to the sponsor for further evaluation.

[2] = Solubility in water / aqueous buffer / Captisol
[3] = tested on: Calcium-reconstituted sheep blood; test: Activated clotting time (ACT), Hemochron Response; format: biochemical; conditions: individual drug at 0.6 ng/mg
Protocol: The activated clotting time (ACT) evaluation of anticoagulants was performed in Calcium-reconstituted sheep blood and recorded employing the Hemochron® Response device. […] A target amount of drug solution was then added into the test tube. […] The tube was gently shaken before being inserted into the Hemochron Response detector. The ACT read out was recorded and reported. The ACT of the control blood in the absence of any drug as first determined to establish a baseline. Then ACT was determined in the presence of different concentrations of the drug as a single component. Selected drug combinations, were then tested to evaluate for potential synergy in action between the two drugs.

in vivo [4] = test: in vivo; parameters: species or system Sprague-Dawley rats; conditions: male, Sprague-Dawley, rat; for Tmax: inhaled or intranasal
Protocol: At their assigned time-point, rats were anesthetized and subjected to exsanguination via an abdominal vessel and gross necropsy. Whole blood (two ˜1.5 ml aliquots, K2EDTA) was collected. The whole blood was stored frozen at −60° C. or lower until shipped overnight with dry ice for further evaluation.
Whole blood (two ˜100 μL aliquots, K2EDTA) was collected from the catheter of conscious rats for systemic pharmacokinetics (PK) at the time-points. Whole blood samples were stored at −60° C. or lower until shipped overnight on dry ice for further evaluation.

porcine coronary artery [5] = test: Histopathology scores (fibrin, injury, inflammation) of stented porcine coronary arteries; conditions: for inhibiting fibrin formation compared to bare metal control stents: at 7 days, released from stents
in vivo [6] = conditions: pig, whole blood
[7] = Coated balloon tissue drug concentration in vivo (LCMS); parameters: species or system porcine; conditions: pig, 300 μg
Excerpt: The balloon (e.g., the balloon of a balloon-catheter of a stent-delivery system) was advanced to a site to be treated (e.g., an occluded or weakened section of a blood vessel to be opened up or supported by a stent) in the body of a subject and inflated to a desired inflation diameter. Before, during, and/or after inflation of the balloon, the balloon released the therapeutic composition to, into, or at the treatment site, or to, into, or at an area adjacent thereto, by any suitable mechanism (e.g., concentration gradient, diffusion, pressure, or mechanical force, or a combination thereof). […] The tissue concentration is shown in ng/mg tissue. The coated balloons were evaluated for drug delivery efficiency in an animal study. Drug transfer of the coated balloons into arterial segments were evaluated using harvested pig arteries. The arterial wall was separated after animal study. The arterial walls were then stored in an individual labeled vial. All samples were kept on dry ice until stored in the −80° C. freezer. All samples were then frozen to […] prior to being analyzed.

[8] = Whole blood PK of drug eluting stents; conditions: for concentration at 180 min: 180 min. (3 hr); for concentration at 60 min: 60 min. (1 hr); for concentration at 120 min: 120 min. (2 hr)
porcine coronary artery [9] = test: Quantitative coronary angiography (late lumen loss, diameter stenosis) after stent implantation; conditions: at 7 days, released from stents
[10] = pig, whole blood, other: drug eluting stent implanted in coronary artery, Whole blood concentration, SS16 stents, 1 H group
[11] = pig, whole blood, other: drug eluting stents implanted in coronary arteries, Whole blood concentration, SS16 stents, 1 D group
[12] = pig, whole blood, other: drug eluting stents implanted in coronary arteries, Whole blood concentration, SS17 stents, 1 D group
[13] = pig, whole blood, other: drug eluting stents implanted in coronary arteries, Whole blood concentration, SS17 stents, 1 H group

Which “time the drug content in lung tissue lasted” value [1] does the source give for `COc1ccc(-n2nc(C(N)=O)c3c2C(=O)N(c2ccc(N4CCCCC4=O)cc2)CC3)cc1` [Apixaban] here?
The value was “up to 3.5 hours”.

And the “time the drug content in lungs tissue lasted” value [1]?
The value was “up to 1 hours”.

And the solubility ([2]; aqueous buffer, solubility in aqueous buffers, drug alone)?
Its solubility is ~0.028 mg/mL (≈ 60.9 µM).

And the solubility ([2]; water, solubility in water)?
The solubility was ~0.028 mg/mL (≈ 60.9 µM).

And the ACT [3]?
Its ACT is 522.

And the Tmax (in vivo [4])?
Its Tmax is 5 to 10 min.

Which results are given for `CC1CNc2c(cccc2S(=O)(=O)N[C@@H](CCCNC(=N)N)C(=O)N2CC[C@@H](C)C[C@@H]2C(=O)O)C1` (some centres unmarked) [Argatroban]?
time the drug content in lung tissue lasted [1]: more than 6 hours; time the drug content in lungs tissue lasted [1]: more than 5 hours; inhibiting fibrin formation compared to bare metal control stents (porcine coronary artery [5]): not more effective; solubility (physchem; aqueous buffer, solubility in aqueous buffers): ~3 mg/mL (≈ 5900 µM); solubility (physchem; water, solubility in water): ~3 mg/mL (≈ 5900 µM); ACT [3]: 301; Tmax (in vivo [4]): ~60 min

With `CN1CCCC(n2nc(Cc3ccc(Cl)cc3)c3ccccc3c2=O)CC1` (centres unmarked) [Azelastine, Azelastine hydrochloride] as the compound, how does the “time the drug content in lungs tissue lasted” value [1] read?
Its value is “more than 5 hours”.

What about the “time the systemic drug in whole blood lasted” value (in vivo [4]) of the same compound?
The value was “up to 2 hours”.

Which “time the drug content in lungs tissue lasted” value [1] does the source give for `CCN(CCO)CCCC(C)Nc1ccnc2cc(Cl)ccc12` (centres unmarked) [Hydroxychloroquine, Hydroxychloroquine sulfate] here?
Its value is “more than 5 hours”.

And the “time the systemic drug in whole blood lasted” value (in vivo [4])?
The value was “more than 5 hours”.

Which results are given for `O=C(NC[C@H]1CN(c2ccc(N3CCOCC3=O)cc2)C(=O)O1)c1ccc(Cl)s1` [Rivaroxaban]?
inhibiting fibrin formation compared to control (porcine coronary artery [5]; at 7 days and/or at 28 days, faster release formulation): more effective; inhibiting fibrin formation compared to bare metal control stents (porcine coronary artery [5]): more effective; concentration at 15 min (in vivo [6]; other: drug eluting stent implanted in coronary artery): 3.32 ng/mL; concentration at 150 min (in vivo [6]; other: drug eluting stents implanted in coronary arteries): 2.08 ng/mL; concentration at 15 min ([7]; coronary artery wall): 1230 ± 370 ng/g; concentration at 15 min ([7]; superficial femoral artery wall): 40600 ± 64700 ng/g; Whole blood concentration ([8]; SS16 stents, 1 D group, 24 hr (Day 1)): BQL; Whole blood concentration ([8]; SS16 stents, 1 D group, Pre-implant): BQL; Whole blood concentration ([8]; SS16 stents, 1 H group, Pre-implant): BQL; Whole blood concentration ([8]; SS16 stents, 7 D group, Day 7): BQL; Whole blood concentration ([8]; SS16 stents, 7 D group, Pre-implant): BQL; Whole blood concentration ([8]; SS16 stents, 28 D group, Day 28): BQL; Whole blood concentration ([8]; SS16 stents, 28 D group, Pre-implant): BQL; Whole blood concentration ([8]; SS17 stents, 1 D group, Pre-implant): BQL; Whole blood concentration ([8]; SS17 stents, 1 H group, Pre-implant): BQL; Whole blood concentration ([8]; SS17 stents, 7 D group, Day 7): BQL; Whole blood concentration ([8]; SS17 stents, 7 D group, Pre-implant): BQL; Whole blood concentration ([8]; SS17 stents, 28 D group, Day 28): BQL; Whole blood concentration ([8]; SS17 stents, 28 D group, Pre-implant): BQL; systemic blood concentration versus systemic therapeutic concentrations (Cmax, Cmean, Ctrough) ([8]; drug eluting stents SS15, SS16, SS17): below; concentration at 30 min ([8]; pig, whole blood, other: drug eluting stent implanted in coronary artery, Whole blood concentration, SS16 stents, 1 D group): 3.76 ng/mL; concentration at 30 min [8, 10]: 3.34 ng/mL; concentration at 45 min [8, 10]: 3.68 ng/mL; concentration at 180 min ([8]; pig, whole blood, other: drug eluting stent implanted in coronary artery, Whole blood concentration, SS17 stents, 1 D group): 8.39 ng/mL; concentration at 4 h ([8]; pig, whole blood, other: drug eluting stent implanted in coronary artery, Whole blood concentration, SS17 stents, 1 D group, 4 hr): 3.74 ng/mL; concentration at 5 h ([8]; pig, whole blood, other: drug eluting stent implanted in coronary artery, Whole blood concentration, SS17 stents, 1 D group, 5 hr): 3.9 ng/mL; concentration at 6 h ([8]; pig, whole blood, other: drug eluting stent implanted in coronary artery, Whole blood concentration, SS17 stents, 1 D group, 6 hr): 3.1 ng/mL; concentration at 24 h ([8]; pig, whole blood, other: drug eluting stent implanted in coronary artery, Whole blood concentration, SS17 stents, 1 D group, 24 hr (Day 1)): 0.16 ng/mL; concentration at 45 min [8, 11]: 3.47 ng/mL; concentration at 60 min [8, 11]: 2.61 ng/mL; concentration at 90 min [8, 11]: 2.43 ng/mL; concentration at 120 min [8, 11]: 2.3 ng/mL; concentration at 180 min [8, 11]: 1.95 ng/mL; concentration at 4 hr ([8]; pig, whole blood, other: drug eluting stents implanted in coronary arteries, Whole blood concentration, SS16 stents, 1 D group, 4 hr): 1.23 ng/mL; concentration at 5 hr ([8]; pig, whole blood, other: drug eluting stents implanted in coronary arteries, Whole blood concentration, SS16 stents, 1 D group, 5 hr): 1.11 ng/mL; concentration at 6 hr ([8]; pig, whole blood, other: drug eluting stents implanted in coronary arteries, Whole blood concentration, SS16 stents, 1 D group, 6 hr): 1.03 ng/mL; concentration at 60 min ([8]; pig, whole blood, other: drug eluting stents implanted in coronary arteries, Whole blood concentration, SS16 stents, 1 H group): 4.08 ng/mL; concentration at 15 min [8, 12]: 24 ng/mL; concentration at 30 min [8, 12]: 20.1 ng/mL; concentration at 45 min [8, 12]: 19.5 ng/mL; concentration at 60 min [8, 12]: 18.5 ng/mL; concentration at 90 min [8, 12]: 15 ng/mL; concentration at 120 min [8, 12]: 11.6 ng/mL; concentration at 150 min ([8]; pig, whole blood, other: drug eluting stents implanted in coronary arteries, Whole blood concentration, SS17 stents, 1 D group, 150 min.): 11.3 ng/mL; concentration at 15 min [8, 13]: 10.8 ng/mL; concentration at 30 min [8, 13]: 8.44 ng/mL; concentration at 45 min [8, 13]: 7.82 ng/mL; concentration at 60 min [8, 13]: 7.54 ng/mL; inhibiting smooth muscle cell proliferation (LLL) compared to bare metal control stents (porcine coronary artery [9]): not more effective

For Dalteparin, which “inhibiting fibrin formation compared to bare metal control stents” value (porcine coronary artery [5]) is on record?
The value was “not more effective”.

And the “inhibiting smooth muscle cell proliferation (LLL) compared to bare metal control stents” value (porcine coronary artery [9])?
The value was “not more effective”.

— US20230165874A1, “ANTICOAGULANT COMPOUNDS AND METHODS AND DEVICES FOR THEIR PULMONARY USE” (priority 2020, published 2023)
